In patent US9717733B2, “Edible plant-derived microvesicle compositions including conjugated therapeutic agents and methods for using the same” (priority 2014, dated 2017):

Key:
Raw264.7 macrophages = assay: Internalization assay (GDN uptake with endocytosis inhibitors); format: cell-based, mouse; settings: 30 min pretreatment: 50 μM amiloride, 12.5 μM chlorpromazine or 100 μM indomethacin; 2 μg/ml PKH26-labeled GDNs, 3 h
Protocol: Macrophages were plated on Lab-Tek chamber slide (Sigma) and incubated for 24 h in growth medium. Before the uptake assay, GDNs were labeled with PKH26, sucrose gradient purified and diluted in PBS. Uptake was performed by incubating cell cultures with 2 μg/ml of GDNs for 3 h in a humid chamber (37° C., 5% CO2). For inhibition experiments, cell cultures were pre-incubated with individual inhibitors for 30 min before performing the uptake experiments.

[1] = test system: DSS-induced colitis in mice; assay: DSS-induced colitis, therapeutic effect of GMTX; format: in vivo, mouse; settings: 5 mg/kg oral on day 3, 5 and 6 of DSS
Protocol: Colitis was induced in mice by addition of 2% (wt/vol) DSS (MW 36-50 KD molecular weight, MP Biomedicals, OH) in their drinking water for the duration of the study. DSS solution was freshly prepared every other day. Body weight and physical activity were monitored daily. To test the protective effect of GDNs, mice fasted for 4 h were orally given either PBS or 10 mg/kg of GDNs daily for 7 days and then treated with 2% DSS in drinking water for 7 days to induce colitis with continued administration of GDNs. To test the therapeutic effect of GMTX, colitis was first induced in mice by providing 2% DSS in their drinking water. On day 3, 5 and 6 of DSS-induced colitis, mice were treated with free MTX (5 mg/kg body weight) or GMTX (MTX equaled to 5 mg/kg) by oral administration. […]
For histopathology, tissues were fixed in 10% neutral formalin and then embedded in paraffin. […] Histological examination was performed in a blinded fashion and the severity of colitis was scored as described previously. […] E-cadherin and F4/80 binding was detected by Alexa Fluor 488 conjugated goat anti-mouse IgG or goat anti-rat IgG (1:600, Invitrogen), respectively. […]
To assess the local levels of IL-6, IL-1β, TNF-α, organ cultures were generated from naïve, GDN, PBS/DSS and GDN/DSS challenged mice. […] The local levels of PGE2 were determined by a PGE2-specific EIA (Cayman Chemical, Ann Arbor, Mich.) as described previously. […]

| Compound | inhibition of GDN uptake (Raw264.7 macrophages) | symptoms of colitis vs PBS treated mice (colon tissue damage, colon length reduction, E-cadherin expression) [1] |
| --- | --- | --- |
| COc1ccc2c(c1)c(CC(=O)O)c(C)n2C(=O)c1ccc(Cl)cc1 [indomethacin] | did not significantly alter | – |
| CN(Cc1cnc2nc(N)nc(N)c2n1)c1ccc(C(=O)N[C@@H](CCC(=O)O)C(=O)O)cc1 [free MTX, methotrexate] | – | aggravated symptoms of colitis |
